Reference: the SangsterLogP compilation

Assay: method code SF-AS, from PMID: 7324974
Conditions: pH 5.0

In order of rising logD:
1. COC(=O)c1cnc2n(c1=O)CCCC2  -0.25
2. CC1CCCc2ncc(C(N)=O)c(=O)n21 (centres undefined)  0.04
3. CC1CCC=C2N(C)C=C(C(N)=O)C(=O)N21 (centres undefined)  0.12
4. CCOC(=O)c1cnc2n(c1=O)CCCC2  0.15
5. COC(=O)c1cnc2n(c1=O)C(C)CCC2 (centres undefined)  0.16
6. CC1CCCC2N(C)C=C(C(N)=O)C(=O)N12 (centres undefined)  0.22
7. CCOC(=O)c1cnc2ccccn2c1=O  0.25
8. CCOC(=O)C1=CN(C)C2CCCC(C)N2C1=O (centres undefined)  0.45
9. CC1CCCC2NC=C(C(N)=O)C(=O)N12 (centres undefined)  0.51
10. CCOC(=O)C1=CNC2CCCCN2C1=O (centres undefined)  0.57
11. CCN1C=C(C(N)=O)C(=O)N2C(C)CCCC12 (centres undefined)  0.6
12. CCOC(=O)c1cnc2n(c1=O)C(C)CCC2 (centres undefined)  0.62
13. CCOC(=O)c1cnc2n(c1=O)CCC(C)C2 (centres undefined)  0.66
14. CCOC(=O)c1cnc2n(c1=O)CC(C)CC2 (centres undefined)  0.71
15. Cc1cnc2ccccn2c1=O  0.77
16. CCOC(=O)C1=CNC2CCCC(C)N2C1=O (centres undefined)  0.79
17. CCOC(=O)c1cnc2cc(C)ccn2c1=O  0.87
18. CCOC(=O)c1cnc2ccc(C)cn2c1=O  0.9
19. CCOC(=O)c1cnc2cccc(C)n2c1=O  0.96
20. COC(=O)c1cnc2n(c1=O)C(C(C)C)CCC2 (centres undefined)  0.99
21. Cc1cc(=O)n2c(C)cccc2n1  1.05
22. CCCC1CCCc2ncc(C(=O)OC)c(=O)n21 (centres undefined)  1.14
23. CCOC(=O)c1cnc2c(C)cccn2c1=O  1.16
24. CCc1cc(=O)n2c(C)cccc2n1  1.59
25. CCc1cccc2nc(C)cc(=O)n12  1.63
26. CCCCC1CCCc2ncc(C(=O)OC)c(=O)n21 (centres undefined)  1.77
27. CCc1nc2cccc(C)n2c(=O)c1C  1.87
28. CCCc1nc2cccc(C)n2c(=O)c1CC  2.37
29. Cc1cccc2ncc(-c3ccccc3)c(=O)n12  2.59
